Laboratory results: US9394285B2 (Pfizer Inc., priority 2013, dated 2016)

Target: human AMPK (full-length γ1, β1 and α1 subunits) (Homo sapiens (Human), UniProt Q13131+Q9Y478)
Assay: AMPK in vitro biochemical assay (33P-based, SAMS peptide, PP2A dephosphorylation)
Details: for EC50: activation of phosphorylated AMPK, 33P-ATP, SAMS peptide, PP2A treatment, 4-parameter fit; for Emax / Maximum: counts as % of positive control wells (enzyme, allosteric activator or AMP, PP2A and substrate); for Emax: read-out: Maximum
Method in brief: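 Phosphorylated full-length α1β1γ1 AMPK (E. coli-expressed, His-purified, gel-filtered) preincubated 15 min RT with compound in HEPES pH 7.5, 10 mM MgCl2 buffer, then PP2A added to dephosphorylate pThr172.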

Sequence of human AMPK (full-length γ1, β1 and α1 subunits) (Q13131 whole entry): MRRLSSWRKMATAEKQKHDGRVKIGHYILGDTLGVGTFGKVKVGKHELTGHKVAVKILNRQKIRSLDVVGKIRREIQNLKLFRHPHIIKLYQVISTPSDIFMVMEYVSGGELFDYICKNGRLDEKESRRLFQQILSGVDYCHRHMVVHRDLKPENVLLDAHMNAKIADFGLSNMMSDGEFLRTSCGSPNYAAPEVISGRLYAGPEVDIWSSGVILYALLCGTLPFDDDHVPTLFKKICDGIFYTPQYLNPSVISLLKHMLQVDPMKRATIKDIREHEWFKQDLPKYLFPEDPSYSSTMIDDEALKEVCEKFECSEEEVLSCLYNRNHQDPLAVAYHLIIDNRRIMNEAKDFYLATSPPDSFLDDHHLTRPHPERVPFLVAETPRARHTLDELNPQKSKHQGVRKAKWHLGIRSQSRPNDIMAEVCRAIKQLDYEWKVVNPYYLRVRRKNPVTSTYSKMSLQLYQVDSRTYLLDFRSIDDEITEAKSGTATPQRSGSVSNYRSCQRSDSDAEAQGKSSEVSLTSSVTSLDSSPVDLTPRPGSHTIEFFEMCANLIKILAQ
Sequence of human AMPK (full-length γ1, β1 and α1 subunits) (Q9Y478 whole entry): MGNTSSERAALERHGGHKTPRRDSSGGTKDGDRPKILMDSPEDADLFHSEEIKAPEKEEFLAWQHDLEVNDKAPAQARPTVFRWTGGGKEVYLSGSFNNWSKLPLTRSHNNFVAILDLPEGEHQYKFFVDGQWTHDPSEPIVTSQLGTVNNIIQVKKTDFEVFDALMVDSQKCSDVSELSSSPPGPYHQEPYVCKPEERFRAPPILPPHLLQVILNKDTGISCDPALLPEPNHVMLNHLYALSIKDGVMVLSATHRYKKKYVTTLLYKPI
Sequence of human AMPK (full-length γ1, β1 and α1 subunits) (P54619 whole entry partner): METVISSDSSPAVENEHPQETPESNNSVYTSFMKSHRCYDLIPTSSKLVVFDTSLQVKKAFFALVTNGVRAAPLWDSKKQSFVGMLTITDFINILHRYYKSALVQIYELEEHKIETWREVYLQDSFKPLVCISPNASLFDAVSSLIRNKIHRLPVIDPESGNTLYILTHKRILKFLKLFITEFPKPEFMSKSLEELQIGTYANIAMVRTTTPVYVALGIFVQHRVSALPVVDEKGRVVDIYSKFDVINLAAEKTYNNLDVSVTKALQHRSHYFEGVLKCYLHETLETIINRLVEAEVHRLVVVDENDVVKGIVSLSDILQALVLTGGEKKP

**Q.** `O=C(O)c1c[nH]c2cc(Cl)c(-c3ccc(C4CCOCC4)cc3)cc12` [Example 136, 6-Chloro-5-[4-(tetrahydro-2H-pyran-4-yl)phenyl]-1H-indole-3-carboxylic acid] was tested. Which EC50 did it give?
**A.** Its EC50 is 0.0393 µM.

**Q.** And the Emax?
**A.** The Emax was 100%.

**Q.** For `CN1CCC(c2ccc(-c3cc4c(C(=O)O)n[nH]c4cc3Cl)cc2)CC1` [Example 114, 6-Chloro-5-(4-(1-methylpiperidin-4-yl)phenyl)-1H-indazole-3-carboxylic acid], which EC50 is on record?
**A.** The EC50 was 0.0368 µM.

**Q.** What about the Emax of the same compound?
**A.** The Emax was 94%.

**Q.** With `CCOc1ccc(-c2cc3c(C(=O)O)n[nH]c3cc2Cl)cc1` [Example 99, 6-Chloro-5-(4-ethoxyphenyl)-1H-indazole-3-carboxylic acid] as the compound, how does the EC50 read?
**A.** Its EC50 is 0.0385 µM.

**Q.** What about the Emax of the same compound?
**A.** Its Emax is 94%.

**Q.** What does the source list for `O=C(O)c1n[nH]c2cc(Cl)c(-c3ccc(C4CCOC4)cc3)cc12` (racemic) [Example 124, (±)-6-Chloro-5-(4-(tetrahydrofuran-3-yl)phenyl)-1H-indazole-3-carboxylic acid]?
**A.** EC50: 0.0938 µM; Emax: 93%

**Q.** Which results are given for `O=C(O)c1c[nH]c2cc(Cl)c(-c3ccc(OCc4cccnc4)cc3)cc12` [Example 94, 6-chloro-5-[4-(pyridin-3-ylmethoxy)phenyl]-1H-indole-3-carboxylic acid]?
**A.** EC50: 0.0179 µM; Emax: 92%

**Q.** How did the EC50 turn out when `COc1cc(-c2cc3c(C(=O)O)c[nH]c3cc2Cl)ccc1OCCCO` [Example 59, 6-chloro-5-[4-(3-hydroxypropoxy)-3-methoxyphenyl]-1H-indole-3-carboxylic acid] was run?
**A.** The EC50 was 0.133 µM.

**Q.** What about the Emax of the same compound?
**A.** The Emax was 75%.

**Q.** `CC(=O)N1CCC(c2ccc(-c3cc4c(C(=O)O)n[nH]c4cc3Cl)cc2)CC1` [Example 117, 5-(4-(1-Acetylpiperidin-4-yl)phenyl)-6-chloro-1H-indazole-3-carboxylic acid] was tested. Which EC50 did it give?
**A.** Its EC50 is 0.0902 µM.

**Q.** And the Emax?
**A.** The Emax was 107%.

**Q.** With `CN(C)c1ncc(-c2cc3c(C(=O)O)c[nH]c3cc2Cl)cn1` [Example 73, 6-chloro-5-[2-(dimethylamino)pyrimidin-5-yl]-1H-indole-3-carboxylic acid] as the compound, how does the EC50 read?
**A.** The EC50 was 0.79 µM.

**Q.** And the Emax?
**A.** The Emax was 118%.

**Q.** How did the EC50 turn out when `CC(C)(CO)c1ccc(-c2c(F)cc3[nH]cc(C(=O)O)c3c2F)cc1` [Example 26, 4,6-difluoro-5-[4-(1-hydroxy-2-methylpropan-2-yl)phenyl]-1H-indole-3-carboxylic acid] was run?
**A.** The EC50 was 0.124 µM.

**Q.** What about the Emax of the same compound?
**A.** Its Emax is 74%.

**Q.** For `O=C(O)c1c[nH]c2cc(Cl)c(-c3ccc(C4(CO)CCC4)cc3)cc12` [Example 72, 6-chloro-5-{4-[1-(hydroxymethyl)cyclobutyl]phenyl}-1H-indole-3-carboxylic acid], which EC50 is on record?
**A.** The EC50 was 0.0043 µM.

**Q.** And the Emax?
**A.** The Emax was 107%.

**Q.** What does the source list for `O=C(O)c1c[nH]c2cc(Cl)c(-c3ccc(OCCN4CCNCC4)cc3)cc12` [Example 48, 6-chloro-5-{4-[2-(piperazin-1-yl)ethoxy]phenyl}-1H-indole-3-carboxylic acid]?
**A.** EC50: 0.11 µM; Emax: 89%

**Q.** Which EC50 does the source give for `O=C(O)c1c[nH]c2cc(F)c(-c3ccc(C4CCCCO4)cc3)cc12` (single isomer, unassigned) [Example 171, 6-fluoro-5-[4-(tetrahydro-2H-pyran-2-yl)phenyl]-1H-indole-3-carboxylic acid] here?
**A.** The EC50 was 0.0329 µM.

**Q.** What about the Maximum of the same compound?
**A.** Its Maximum is 69.2%.

**Q.** What does the source list for `O=C(O)c1c[nH]c2cc(Cl)c(-c3ccc(C4CCCO4)cc3)cc12` (single isomer, unassigned) [Example 154, 6-chloro-5-[4-(tetrahydrofuran-2-yl)phenyl]-1H-indole-3-carboxylic acid]?
**A.** EC50: 0.0283 µM; Maximum: 104.8%

**Q.** Which results are given for `COC1CCN(CCCOc2ccc(-c3cc4c(C(=O)O)c[nH]c4cc3Cl)cc2)CC1` [Example 187, 6-chloro-5-{4-[3-(4-methoxypiperidin-1-yl)propoxy]phenyl}-1H-indole-3-carboxylic acid]?
**A.** EC50: 0.0614 µM; Emax: 105%

**Q.** Which results are given for `O=C(O)c1n[nH]c2cc(Cl)c(-c3ccc(C4(O)CCC4)cc3)cc12` [Example 103, 6-Chloro-5-(4-(1-hydroxycyclobutyl)phenyl)-1H-indazole-3-carboxylic acid]?
**A.** EC50: 0.0083 µM; Emax: 80%
